What was measured:
[1] = test system: antibodies in sera from SARS patients (sera 1a, 1b, 2, 6, 37, 62, London, SARS-yellow, SARS-green); assay type: binding, human; parameters: Binding of serum 6 to linear peptides of protein X1 of SARS-CoV Urbani / Binding of serum 37 to linear peptides of protein X1 of SARS-CoV Urbani / Binding of serum 6 to looped/cyclic peptide (PEPSCAN-ELISA) / Binding of serum 37 to looped/cyclic peptide (PEPSCAN-ELISA) / Binding of serum 37 to looped/cyclic peptides of protein X1 of SARS-CoV Urbani / Binding of serum 6 to linear peptides of protein X2 / Binding of serum 37 to linear peptides of protein X2 / Binding of serum 37 to looped/cyclic peptides of protein X2 of SARS-CoV Urbani / Binding of serum 6 to linear peptides of protein M of SARS-CoV Urbani / Binding of serum 37 to linear peptides of protein M of SARS-CoV Urbani / Binding of serum 6 to looped/cyclic peptides of protein M of SARS-CoV Urbani / Binding of serum 37 to looped/cyclic peptides of protein M of SARS-CoV Urbani / Binding of serum 6 to linear peptides of protein X3 of SARS-CoV Urbani / Binding of serum 37 to linear peptides of protein X3 of SARS-CoV Urbani / Binding of serum 37 to looped/cyclic peptides of protein X3 of SARS-CoV Urbani / Binding of serum 6 to linear peptides of protein X4 of SARS-CoV Urbani / Binding of serum 37 to linear peptides of protein X4 of SARS-CoV Urbani / Binding of serum 37 to looped/cyclic peptides of protein X4 of SARS-CoV Urbani / Binding of serum 6 to linear peptides of protein X5 of SARS-CoV Urbani / Binding of serum 37 to linear peptides of protein X5 of SARS-CoV Urbani / Binding of serum 37 to looped/cyclic peptides of protein X5 of SARS-CoV Urbani / Binding of serum 6 to linear peptides of protein N of SARS-CoV Urbani / Binding of serum 37 to linear peptides of protein N of SARS-CoV Urbani / Binding of serum 6 to linear peptide (PEPSCAN-ELISA) / Binding of serum 1a to looped/cyclic peptides of protein N of SARS-CoV Urbani / Binding of serum 1b to looped/cyclic peptides of protein N of SARS-CoV Urbani / Binding of serum 2 to looped/cyclic peptides of protein N of SARS-CoV Urbani / Binding of serum 6 to looped/cyclic peptides of protein N of SARS-CoV Urbani / Binding of serum 37 to looped/cyclic peptides of protein N of SARS-CoV Urbani / Binding of serum 62 to looped/cyclic peptides of protein N of SARS-CoV Urbani / Binding of serum London to looped/cyclic peptides of protein N of SARS-CoV Urbani / Binding of serum SARS-green to looped/cyclic peptides of protein N of SARS-CoV Urbani: unit not given here
[2] = test system: control sera (pooled serum of ten healthy LUMC hospital workers; commercial negative donor pooled serum from the Dutch bloodbank); assay type: binding, human; parameters: Binding of Control serum LUMC to linear peptides / Binding of Control serum Blood-bank to linear peptides / Binding of Control serum LUMC to looped peptides / Binding of Control Serum Blood-Bank to Looped peptides / Binding of Control serum LUMC to linear peptides of the protein M of SARS-CoV Urbani / Binding of Control serum Blood-bank to linear peptides of the protein M of SARS-CoV Urbani / Binding of Control serum LUMC to looped peptides of the protein M of SARS-CoV Urbani / Binding of Control Serum Blood-Bank to Looped peptides of the protein M of SARS-CoV Urbani: unit not given here
[3] = test system: rabbit serum obtained by immunizing a rabbit with the SARS-CoV strain Frankfurt 1; assay type: binding; parameters: Binding of a rabbit serum to linear peptides / Binding of a rabbit serum to looped peptides / Rabbit serum linear peptides / Rabbit serum looped peptides / Binding of a rabbit serum to linear peptides of protein N of SARS-CoV Urbani (Rabbit serum linear peptides) / Binding of a rabbit serum to looped/cyclic peptides of protein N of SARS-CoV Urbani (Rabbit serum looped peptides): unit not given here
[4] = test system: recombinant human anti-SARS-CoV antibody 03-018; assay type: binding; parameters: Binding of antibody 03-018 to linear peptides of the N protein of SARS-CoV Urbani / Binding of antibody 03-018 to looped/cyclic peptides of the N protein of SARS-CoV Urbani: unit not given here

Sequence	Binding of serum 1a to linear peptides of protein N of SARS-CoV Urbani [1]	Binding of serum 1a to looped/cyclic peptides of protein N of SARS-CoV Urbani [1]	Binding of serum 1b to linear peptides of protein N of SARS-CoV Urbani [1]	Binding of serum 1b to looped/cyclic peptides of protein N of SARS-CoV Urbani [1]	Binding of serum 2 to linear peptides of protein N of SARS-CoV Urbani [1]	Binding of serum 2 to looped/cyclic peptides of protein N of SARS-CoV Urbani [1]	Binding of serum 6 to linear peptides of protein N of SARS-CoV Urbani [1]	Binding of serum 6 to looped/cyclic peptides of protein N of SARS-CoV Urbani [1]	Binding of serum 37 to linear peptides of protein N of SARS-CoV Urbani [1]	Binding of serum 37 to looped/cyclic peptides of protein N of SARS-CoV Urbani [1]	Binding of serum 62 to linear peptides of protein N of SARS-CoV Urbani [1]	Binding of serum 62 to looped/cyclic peptides of protein N of SARS-CoV Urbani [1]	Binding of serum London to linear peptides of protein N of SARS-CoV Urbani [1]	Binding of serum London to looped/cyclic peptides of protein N of SARS-CoV Urbani [1]	Binding of serum SARS-green to linear peptides of protein N of SARS-CoV Urbani [1]	Binding of serum SARS-green to looped/cyclic peptides of protein N of SARS-CoV Urbani [1]	Binding of serum SARS-yellow to linear peptides of protein N of SARS-CoV Urbani [1]	Binding of serum SARS-yellow to looped/cyclic peptides of protein N of SARS-CoV Urbani [1]	Binding of a rabbit serum to linear peptides of protein N of SARS-CoV Urbani (Rabbit serum linear peptides) [3]	Binding of a rabbit serum to looped/cyclic peptides of protein N of SARS-CoV Urbani (Rabbit serum looped peptides) [3]	further results
ANKEGIVWVATEGAL	0.2	0.4	0.1	0.3	0.2	0.3	0.2	0.2	0.8	0.6	0.7	0.5	0.4	0.3	0.4	0.4	0.7	0.6	0.1	0.3	Binding of Control Serum Blood-Bank to Looped peptides [2]: 0.5; Binding of Control serum Blood-bank to linear peptides [2]: 0.6; Binding of Control serum LUMC to linear peptides [2]: 0.6; Binding of Control serum LUMC to looped peptides [2]: 0.6; Binding of antibody 03-018 to linear peptides of the N protein of SARS-CoV Urbani [4]: 0.1; Binding of antibody 03-018 to looped/cyclic peptides of the N protein of SARS-CoV Urbani [4]: 0.2
ASAFFGMSRIGMEVT	0.2	0.3	0.3	0.2	0.2	0.3	0.2	0.1	0.7	0.5	0.7	0.4	0.8	0.3	0.3	0.3	0.7	0.6	0.1	0.5	Control Serum Blood-Bank Looped peptides [2]: 0.5; Control serum Blood-bank linear peptides [2]: 0.7; Control serum LUMC linear peptides [2]: 0.7; Control serum LUMC looped peptides [2]: 0.4; Binding of antibody 03-018 to linear peptides of the N protein of SARS-CoV Urbani [4]: 0.1; Binding of antibody 03-018 to looped/cyclic peptides of the N protein of SARS-CoV Urbani [4]: 0.2
ASLPYGANKEGIVWV	0.2	0.4	0.1	0.3	0.2	0.7	0.1	0.3	0.6	1.0	0.5	1.0	0.4	0.6	0.1	0.8	0.5	0.3	0.2	0.2	Binding of Control Serum Blood-Bank to Looped peptides [2]: 0.9; Binding of Control serum Blood-bank to linear peptides [2]: 0.7; Binding of Control serum LUMC to linear peptides [2]: 0.6; Binding of Control serum LUMC to looped peptides [2]: 0.8; Binding of antibody 03-018 to linear peptides of the N protein of SARS-CoV Urbani [4]: 0.1; Binding of antibody 03-018 to looped/cyclic peptides of the N protein of SARS-CoV Urbani [4]: 0.3
ASWFTALTQHGKEEL	0.2	0.2	0.1	0.1	0.1	0.2	0.1	0.1	0.9	0.4	0.6	0.3	0.5	0.3	0.4	0.2	0.4	0.1	0.1	0.1	Binding of Control Serum Blood-Bank to Looped peptides [2]: 0.5; Binding of Control serum Blood-bank to linear peptides [2]: 0.7; Binding of Control serum LUMC to linear peptides [2]: 0.5; Binding of Control serum LUMC to looped peptides [2]: 0.4; Binding of antibody 03-018 to linear peptides of the N protein of SARS-CoV Urbani [4]: 0.1; Binding of antibody 03-018 to looped/cyclic peptides of the N protein of SARS-CoV Urbani [4]: 0.2
